According to publication PMC5680195, “Structural basis of small molecule ATPase inhibition of a human mitotic kinesin motor protein” (Scientific Reports, 2017):

Legend:
[1] = biological target: T1, KIFC1 (Homo sapiens, UniProt Q9BW19, T368P); experiment: X-ray crystal structure, […] A; details: Mg2+; nucleotide-binding cleft; 5-fold molar excess Mg-ADP added; pH 7.5; 18 °C
T1 construct: motor domain N307-C663 with PCR-induced T368P (loop L2, disordered), pFBOH-LIC, Hi-Five insect cells, Ni-NTA purified
T1 sequence (Q9BW19 307-663 T368P): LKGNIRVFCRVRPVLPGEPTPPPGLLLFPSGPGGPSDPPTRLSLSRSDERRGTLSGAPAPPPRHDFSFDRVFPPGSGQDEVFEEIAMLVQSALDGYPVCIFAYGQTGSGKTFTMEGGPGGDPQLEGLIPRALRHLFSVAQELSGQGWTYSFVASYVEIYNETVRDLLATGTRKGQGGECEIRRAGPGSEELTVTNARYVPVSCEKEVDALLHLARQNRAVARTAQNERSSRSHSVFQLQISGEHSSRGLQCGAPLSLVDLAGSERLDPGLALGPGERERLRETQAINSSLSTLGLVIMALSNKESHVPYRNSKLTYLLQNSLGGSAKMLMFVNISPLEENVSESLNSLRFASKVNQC

[2] = biological target: T2, KIFC3 (Homo sapiens, UniProt Q9BVG8); experiment: X-ray crystal structure, […] A; details: Mg2+; nucleotide-binding cleft; no added nucleotide stated; pH 7.5; 18 °C
T2 construct: motor domain K443-L770, p28a-LIC (EF442785 is printed beside the vector), E. coli BL21-CodonPlus (DE3)-RIL, HisTrap purified
T2 sequence (Q9BVG8 443-770): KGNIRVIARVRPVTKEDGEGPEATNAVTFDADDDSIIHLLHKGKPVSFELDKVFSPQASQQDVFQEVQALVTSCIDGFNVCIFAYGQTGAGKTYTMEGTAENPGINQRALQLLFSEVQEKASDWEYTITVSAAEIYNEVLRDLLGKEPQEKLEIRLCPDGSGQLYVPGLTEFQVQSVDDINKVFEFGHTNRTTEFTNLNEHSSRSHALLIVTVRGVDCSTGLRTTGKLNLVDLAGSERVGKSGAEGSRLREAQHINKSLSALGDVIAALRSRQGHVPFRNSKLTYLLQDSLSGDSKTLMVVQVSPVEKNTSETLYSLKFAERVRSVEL

Nc1ncnc2c1ncn2[C@@H]1O[C@H](COP(=O)(O)OP(=O)(O)O)[C@@H](O)[C@H]1O [ADP]
X-ray crystal structure, 2.25 A [1]: Both proteins were crystallized bound to Mg-ADP and are reported here for the first time | X-ray crystal structure, 1.85 A [2]: Both proteins were crystallized bound to Mg-ADP and are reported here for the first time
